Measured values: ChEMBL document CHEMBL5096194, “Development of Alectinib-Based PROTACs as Novel Potent Degraders of Anaplastic Lymphoma Kinase (ALK)” (J Med Chem, 2021)
Calls of active or inactive are those of the source. The calls are words filed in the database; no cut-off is given here.

What was measured:
NCI-H3122 = assay: Antiproliferative activity against ALK-positive human NCI-H3122 cells assessed as inhibition of cell proliferation measured after 72 hrs by MTT assay; type: functional, cell-based; conditions: NCI-H3122, 72 h
[1] = target: Protein cereblon/ALK tyrosine kinase receptor/Echinoderm microtubule-associated protein-like 4 (Homo sapiens) (UniProt Q9UM73+Q9HC35+Q96SW2); assay: Protac activity at CRBN/EML4-ALK in human NCI-H3122 cells assessed as induction of EML4-ALK fusion protein degradation at 1 uM incubated for 16 hrs by Western blot analysis relative to control; type: cell-based
[2] = target: T1, Protein cereblon/ALK tyrosine kinase receptor/Nucleophosmin (Homo sapiens) (UniProt Q9UM73+P06748+Q96SW2); assay: Protac activity at CRBN/NPM-ALK in human KARPAS-299 cells assessed as induction of NPM-ALK fusion protein degradation at 1 uM incubated for 24 hrs by Western blot analysis relative to control; type: cell-based
[3] = target: T1, Protein cereblon/ALK tyrosine kinase receptor/Nucleophosmin (Homo sapiens); assay: Protac activity at CRBN/NPM-ALK in human KARPAS-299 cells assessed as induction of NPM-ALK fusion protein degradation at 0.1 uM incubated for 24 hrs by Western blot analysis relative to control; type: cell-based
[4] = target: Signal transducer and activator of transcription 3 (Homo sapiens) (UniProt P40763); assay: Inhibition of STAT3 phosphorylation in human KARPAS-299 cells as 100 nM measured after 24 hrs by Western blot analysis relative to control; type: cell-based
[5] = Half life in Sprague-Dawley rat at 1 mg/kg, iv administered as single dose measured for 24 hrs by LC-MS/MS analysis; type: ADME, organism-based; conditions: in vivo
[6] = Tmax in Sprague-Dawley rat at 50 mg/kg, ip administered as single dose measured for 24 hrs by LC-MS/MS analysis; type: ADME, organism-based; conditions: in vivo
[7] = Cmax in Sprague-Dawley rat at 1 mg/kg, iv administered as single dose measured for 24 hrs by LC-MS/MS analysis; type: ADME, organism-based; parameters: time 24 hrs, dose 1 mg/kg, route iv; conditions: in vivo
[8] = AUC (0 to t) in Sprague-Dawley rat at 1 mg/kg, iv administered as single dose measured for 24 hrs by LC-MS/MS analysis; type: ADME, organism-based; parameters: time 24 hrs, dose 1 mg/kg, route iv; conditions: in vivo
[9] = Volume of distribution in Sprague-Dawley rat at 50 mg/kg, ip administered as single dose measured for 24 hrs by LC-MS/MS analysis; type: ADME, organism-based; conditions: in vivo
[10] = Observed oral clearance in Sprague-Dawley rat at 50 mg/kg, ip administered as single dose measured for 24 hrs by LC-MS/MS analysis; type: ADME, organism-based; conditions: in vivo
[11] = MRTlast in Sprague-Dawley rat at 50 mg/kg, ip administered as single dose measured for 24 hrs by LC-MS/MS analysis; type: ADME, organism-based; conditions: in vivo
[12] = In vivo induction of degradation of ALK in human KARPAS-299 cells xenografted in NCG mouse assessed as ALK protein expression in tumor at 10 mg/kg, iv administered as single dose measured after 24 hrs by immunoblot analysis relative to control; type: functional
KARPAS-299 [13] = assay: Antitumor activity against human KARPAS-299 cells xenografted in NCG mouse assessed as reduction in tumor volume at 5 to 10 mg/kg, iv administered once every day for 3 weeks and measured every 3 days; type: functional, organism-based; conditions: dose 5-10 mg/kg
KARPAS-299 [14] = assay: Antitumor activity against human KARPAS-299 cells xenografted in NCG mouse assessed as reduction in tumor weight at 5 to 10 mg/kg, iv administered once every day for 3 weeks and measured every 3 days; type: functional, organism-based; conditions: dose 5-10 mg/kg
KARPAS-299 [15] = assay: Antitumor activity against human KARPAS-299 cells xenografted in NCG mouse assessed as reduction in tumor weight at 25 to 50 mg/kg, ip administered once every day for 3 weeks and measured every 3 days; type: functional, organism-based; conditions: dose 25-50 mg/kg
[16] = Toxicity in NCG mouse xenografted with human KARPAS-299 cells assessed as body weight loss at 10 mg/kg, iv administered once every day for 3 weeks; type: organism-based; conditions: in vivo, 504 h
[17] = Toxicity in NCG mouse xenografted with human KARPAS-299 cells assessed as heart damage at 10 mg/kg, iv administered once every day for 3 weeks by H & E staining based analysis; type: organism-based; conditions: in vivo, 504 h
[18] = Toxicity in NCG mouse xenografted with human KARPAS-299 cells assessed as liver damage at 10 mg/kg, iv administered once every day for 3 weeks by H and E staining based analysis; type: organism-based; conditions: in vivo, 504 h
[19] = Toxicity in NCG mouse xenografted with human KARPAS-299 cells assessed as spleen damage at 10 mg/kg, iv administered once every day for 3 weeks by H and E staining based analysis; type: organism-based; conditions: in vivo, 504 h
KARPAS-299 [20] = assay: Antitumor activity against human KARPAS-299 cells xenografted in NCG mouse assessed as increase in ALK protein degradation at 5 to 10 mg/kg, iv administered once every day for 3 weeks; type: functional, organism-based; conditions: dose 5-10 mg/kg
KARPAS-299 [21] = assay: Antitumor activity against human KARPAS-299 cells xenografted in NCG mouse assessed as increase in ALK protein degradation at 25 to 50 mg/kg, ip administered once every day for 3 weeks; type: functional, organism-based; conditions: dose 25-50 mg/kg
BaF3 = assay: Antiproliferative activity against mouse BaF3 cells assessed as cell viability at 1 uM incubated for 72 hrs by Celltitre-Glo assay relative to control; type: functional; conditions: read-out: Activity
KARPAS-299 [22] = assay: Downregulation of SOCS3 protein expression in human KARPAS-299 cells at 1 uM incubated for 24 hrs by iTRAQ proteomics analysis; type: functional, cell-based
[23] = target: Signal transducer and activator of transcription 3 (Homo sapiens) (UniProt P40763); assay: Inhibition of STAT3 phosphorylation in human KARPAS-299 cells as 0.01 to 1 uM measured after 24 hrs by Western blot analysis; type: cell-based; conditions: dose 0.01-1 µM

T1 sequence (P06748 whole entry partner, the tested form may be a part): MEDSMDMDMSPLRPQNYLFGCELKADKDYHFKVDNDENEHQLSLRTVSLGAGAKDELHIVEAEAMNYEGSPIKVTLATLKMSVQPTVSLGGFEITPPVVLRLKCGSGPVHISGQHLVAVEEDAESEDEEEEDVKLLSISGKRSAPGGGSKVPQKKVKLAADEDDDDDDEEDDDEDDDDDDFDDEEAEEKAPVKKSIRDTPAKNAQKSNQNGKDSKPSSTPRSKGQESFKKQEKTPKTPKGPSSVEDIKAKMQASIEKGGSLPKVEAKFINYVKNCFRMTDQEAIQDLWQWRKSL
T1 sequence (Q96SW2 whole entry partner, the tested form may be a part): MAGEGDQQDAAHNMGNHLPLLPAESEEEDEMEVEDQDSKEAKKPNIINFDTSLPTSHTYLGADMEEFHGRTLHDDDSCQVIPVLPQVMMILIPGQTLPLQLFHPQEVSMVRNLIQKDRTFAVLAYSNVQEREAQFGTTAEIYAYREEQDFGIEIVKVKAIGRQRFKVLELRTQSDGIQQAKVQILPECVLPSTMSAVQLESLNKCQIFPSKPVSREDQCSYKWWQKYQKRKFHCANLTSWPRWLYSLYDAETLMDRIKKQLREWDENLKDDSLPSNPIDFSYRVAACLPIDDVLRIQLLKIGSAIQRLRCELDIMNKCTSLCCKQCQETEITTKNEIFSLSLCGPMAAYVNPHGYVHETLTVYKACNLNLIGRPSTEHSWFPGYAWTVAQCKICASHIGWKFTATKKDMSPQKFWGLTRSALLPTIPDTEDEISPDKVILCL
T1 sequence (Q9UM73 19-1620 limits assumed): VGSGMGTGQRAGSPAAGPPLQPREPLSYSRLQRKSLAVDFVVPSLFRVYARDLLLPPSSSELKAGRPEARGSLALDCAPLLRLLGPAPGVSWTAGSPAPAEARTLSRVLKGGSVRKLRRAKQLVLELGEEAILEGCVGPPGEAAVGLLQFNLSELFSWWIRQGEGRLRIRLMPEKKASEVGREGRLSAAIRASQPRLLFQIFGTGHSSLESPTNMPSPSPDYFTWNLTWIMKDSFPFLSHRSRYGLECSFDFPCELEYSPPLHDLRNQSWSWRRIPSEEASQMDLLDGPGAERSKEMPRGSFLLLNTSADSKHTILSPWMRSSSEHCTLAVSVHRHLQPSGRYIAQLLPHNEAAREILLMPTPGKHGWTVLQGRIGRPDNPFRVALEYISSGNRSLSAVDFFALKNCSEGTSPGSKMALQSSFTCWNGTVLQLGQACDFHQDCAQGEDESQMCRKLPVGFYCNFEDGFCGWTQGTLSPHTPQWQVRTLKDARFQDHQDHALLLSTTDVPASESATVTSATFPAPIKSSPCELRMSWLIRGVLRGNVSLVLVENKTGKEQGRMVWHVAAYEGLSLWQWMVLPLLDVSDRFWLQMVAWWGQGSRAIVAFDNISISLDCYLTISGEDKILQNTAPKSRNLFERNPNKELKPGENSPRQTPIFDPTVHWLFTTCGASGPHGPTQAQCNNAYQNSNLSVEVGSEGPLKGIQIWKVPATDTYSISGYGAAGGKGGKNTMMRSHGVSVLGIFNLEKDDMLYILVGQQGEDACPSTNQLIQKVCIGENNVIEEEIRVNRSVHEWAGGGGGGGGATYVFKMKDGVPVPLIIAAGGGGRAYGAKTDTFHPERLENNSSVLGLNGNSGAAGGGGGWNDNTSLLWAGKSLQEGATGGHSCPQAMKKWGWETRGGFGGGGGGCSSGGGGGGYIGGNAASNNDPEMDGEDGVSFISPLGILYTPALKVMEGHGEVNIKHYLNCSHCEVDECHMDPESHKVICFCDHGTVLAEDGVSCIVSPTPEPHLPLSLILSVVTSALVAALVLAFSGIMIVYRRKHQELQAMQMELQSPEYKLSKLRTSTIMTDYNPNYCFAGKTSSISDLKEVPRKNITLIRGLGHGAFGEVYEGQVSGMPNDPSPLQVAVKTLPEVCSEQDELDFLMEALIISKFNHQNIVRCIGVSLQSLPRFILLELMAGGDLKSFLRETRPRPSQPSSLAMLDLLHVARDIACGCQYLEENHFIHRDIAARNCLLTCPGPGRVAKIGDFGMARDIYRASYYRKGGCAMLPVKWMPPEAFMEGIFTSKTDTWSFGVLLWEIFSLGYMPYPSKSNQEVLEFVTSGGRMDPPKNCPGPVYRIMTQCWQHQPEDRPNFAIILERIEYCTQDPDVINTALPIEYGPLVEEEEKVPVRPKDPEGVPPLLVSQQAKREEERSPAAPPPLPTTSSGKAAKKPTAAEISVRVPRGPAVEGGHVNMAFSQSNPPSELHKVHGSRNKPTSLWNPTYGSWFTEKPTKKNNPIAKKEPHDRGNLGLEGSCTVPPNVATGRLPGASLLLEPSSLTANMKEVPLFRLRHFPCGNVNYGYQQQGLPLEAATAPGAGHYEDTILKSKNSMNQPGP
Signal transducer and activator of transcription 3 (Homo sapiens), sequence (P40763 whole entry): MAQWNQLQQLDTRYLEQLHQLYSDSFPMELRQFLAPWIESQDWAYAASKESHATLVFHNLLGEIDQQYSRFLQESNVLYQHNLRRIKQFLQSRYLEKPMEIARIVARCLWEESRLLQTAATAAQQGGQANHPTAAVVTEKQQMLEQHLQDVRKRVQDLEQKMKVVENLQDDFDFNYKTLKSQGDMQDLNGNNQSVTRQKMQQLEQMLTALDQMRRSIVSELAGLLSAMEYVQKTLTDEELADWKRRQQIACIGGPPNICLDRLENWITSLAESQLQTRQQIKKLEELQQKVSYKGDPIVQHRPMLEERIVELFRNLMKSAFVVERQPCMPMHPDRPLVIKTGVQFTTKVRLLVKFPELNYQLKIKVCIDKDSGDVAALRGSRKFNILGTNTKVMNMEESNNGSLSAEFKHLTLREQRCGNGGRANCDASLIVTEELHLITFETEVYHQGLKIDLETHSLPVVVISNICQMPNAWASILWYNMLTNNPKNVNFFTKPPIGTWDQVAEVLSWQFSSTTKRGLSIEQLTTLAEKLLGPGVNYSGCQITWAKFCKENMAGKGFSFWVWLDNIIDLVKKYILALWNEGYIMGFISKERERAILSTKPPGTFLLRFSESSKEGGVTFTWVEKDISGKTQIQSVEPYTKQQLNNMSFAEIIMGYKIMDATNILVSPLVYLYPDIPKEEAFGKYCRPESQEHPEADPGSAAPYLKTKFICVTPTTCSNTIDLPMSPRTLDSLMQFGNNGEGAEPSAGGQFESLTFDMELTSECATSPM
Protein cereblon/ALK tyrosine kinase receptor/Echinoderm microtubule-associated protein-like 4 (Homo sapiens), sequence (Q96SW2 whole entry partner, the tested form may be a part): as the sequence (Q96SW2 whole entry partner, the tested form may be a part) above
Protein cereblon/ALK tyrosine kinase receptor/Echinoderm microtubule-associated protein-like 4 (Homo sapiens), sequence (Q9HC35 whole entry partner, the tested form may be a part): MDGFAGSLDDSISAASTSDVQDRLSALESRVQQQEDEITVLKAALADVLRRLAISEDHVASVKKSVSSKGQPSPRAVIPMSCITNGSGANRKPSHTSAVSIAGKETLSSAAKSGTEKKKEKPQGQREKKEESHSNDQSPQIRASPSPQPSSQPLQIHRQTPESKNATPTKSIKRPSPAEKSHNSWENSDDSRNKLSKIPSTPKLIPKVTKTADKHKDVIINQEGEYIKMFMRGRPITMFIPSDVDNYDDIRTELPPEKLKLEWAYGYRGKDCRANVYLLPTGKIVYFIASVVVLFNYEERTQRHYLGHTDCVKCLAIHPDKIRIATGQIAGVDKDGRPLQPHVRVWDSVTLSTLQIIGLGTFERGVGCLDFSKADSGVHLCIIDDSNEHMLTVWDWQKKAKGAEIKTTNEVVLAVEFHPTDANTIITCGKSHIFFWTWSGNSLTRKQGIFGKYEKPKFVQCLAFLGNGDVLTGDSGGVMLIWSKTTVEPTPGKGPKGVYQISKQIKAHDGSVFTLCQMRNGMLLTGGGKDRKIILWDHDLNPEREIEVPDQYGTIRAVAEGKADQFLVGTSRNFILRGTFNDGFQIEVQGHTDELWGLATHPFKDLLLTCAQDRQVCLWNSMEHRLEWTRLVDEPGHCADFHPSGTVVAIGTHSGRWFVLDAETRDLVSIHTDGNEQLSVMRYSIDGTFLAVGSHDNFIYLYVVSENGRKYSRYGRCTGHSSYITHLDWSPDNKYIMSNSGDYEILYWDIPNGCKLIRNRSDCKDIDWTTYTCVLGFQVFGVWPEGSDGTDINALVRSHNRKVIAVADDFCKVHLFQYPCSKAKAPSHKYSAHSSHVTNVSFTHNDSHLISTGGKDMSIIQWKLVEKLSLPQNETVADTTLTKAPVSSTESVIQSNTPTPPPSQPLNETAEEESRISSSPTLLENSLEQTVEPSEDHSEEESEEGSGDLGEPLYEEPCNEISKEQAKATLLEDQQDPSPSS
Protein cereblon/ALK tyrosine kinase receptor/Echinoderm microtubule-associated protein-like 4 (Homo sapiens), sequence (Q9UM73 19-1620 limits assumed): as the sequence (Q9UM73 19-1620 limits assumed) above

**Q.** With CCc1cc2c(cc1N1CCN(C(=O)CNc3cccc4c3C(=O)N(C3CCC(=O)NC3=O)C4=O)CC1)C(C)(C)c1[nH]c3cc(C#N)ccc3c1C2=O (stereo not given) as the molecule, how does the IC50 (NCI-H3122) read?
**A.** 0.062 µM

**Q.** And the Activity [1]?
**A.** 83.6%

**Q.** And the Activity [2]?
**A.** 85%

**Q.** What about the Activity [3] of the same molecule?
**A.** 8.6%

**Q.** And the inhibition [4]?
**A.** > 85%

**Q.** What about the half-life [5] of the same molecule?
**A.** 25.2 min

**Q.** What about the Tmax [6] of the same molecule?
**A.** 15 min

**Q.** What about the Cmax [7] of the same molecule?
**A.** 994 ng/mL

**Q.** What about the AUC(0-t) at 24 h [8] of the same molecule?
**A.** 146 ng·h/mL

**Q.** What about the Vd [9] of the same molecule?
**A.** 1685.67 L/kg

**Q.** What about the CL/F [10] of the same molecule?
**A.** 743 mL/min/kg

**Q.** What about the MRT last at 24 h [11] of the same molecule?
**A.** 596 min

**Q.** And the Activity [12]?
**A.** 18.7%

**Q.** And the Activity (KARPAS-299 [13])?
**A.** Active

**Q.** What about the Activity (KARPAS-299 [14]) of the same molecule?
**A.** Active

**Q.** And the Activity (KARPAS-299 [15])?
**A.** Active

**Q.** What about the Activity [16] of the same molecule?
**A.** Non-Toxic

**Q.** And the Activity [17]?
**A.** Non-Toxic

**Q.** And the Activity [18]?
**A.** Non-Toxic

**Q.** And the Activity [19]?
**A.** Non-Toxic

**Q.** And the Activity (KARPAS-299 [20])?
**A.** Active

**Q.** What about the Activity (KARPAS-299 [21]) of the same molecule?
**A.** Active

**Q.** And the viability at 1 µM (BaF3)?
**A.** 116%

**Q.** What about the Activity (KARPAS-299 [22]) of the same molecule?
**A.** Active

**Q.** What about the inhibition [23] of the same molecule?
**A.** Active
